Measured values reported in patent US10709692B2, “Isoxazolidine derived inhibitors of receptor interacting protein kinase 1 (RIPK1)” (Denali Therapeutics Inc., priority 2015, dated 2020).

Experiments:
[1] = biological target: T1, receptor interacting protein kinase 1 (GST-hRIPK1 (8-327)) (Homo sapiens, UniProt Q13546); experiment: Fluorescent Polarization Binding (FP Binding) assay; conditions: 10 nM GST-hRIPK1 (8-327), 5 nM fluorescent-labeled ligand, 30 min at RT
T1 construct: GST-hRIPK1 (8-327) enzyme was generated by Proteros GmbH by Baculovirus expression system
T1 sequence (Q13546 8-327): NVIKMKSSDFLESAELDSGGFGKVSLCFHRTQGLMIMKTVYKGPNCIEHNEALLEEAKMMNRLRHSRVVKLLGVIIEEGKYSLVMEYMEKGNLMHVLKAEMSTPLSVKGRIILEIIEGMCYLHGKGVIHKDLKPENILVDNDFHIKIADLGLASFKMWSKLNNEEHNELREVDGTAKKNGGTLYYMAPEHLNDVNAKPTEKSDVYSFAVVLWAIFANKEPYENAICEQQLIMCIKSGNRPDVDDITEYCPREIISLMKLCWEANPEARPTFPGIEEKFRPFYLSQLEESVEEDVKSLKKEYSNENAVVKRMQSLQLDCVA
Method in brief: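 Displacement of 5 nM fluorescent ligand from 10 nM GST-hRIPK1 (8-327), 30 min at room temperature in pH 7.5 HEPES buffer, 1% DMSO. Fluorescence polarization read (ex 531/em 595 nm); IC50 fitted from percent inhibition and averaged over at least two independent experiments.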

IC50 [1]: < 1000 nM
melting point: 92.1 to 95.6 °C
Compound: CC(C)(C(=O)N1OCC[C@H]1c1ccc(-c2noc(C3CC3)n2)cc1)C(F)F [Compound 208, 1-[(3S)-3-[4-(5-cyclopropyl-1,2,4-oxadiazol-3-yl)phenyl]-1,2-oxazolidin-1-yl]-3,3-difluoro-2,2-dimethylpropan-1-one]
